Assay results reported in US11185077B2, “Attractants for rodents” (priority 2016, dated 2021).

How the values were obtained:
[1] = system: wild house mice, Mus musculus; experiment: Field experiments with paired trap boxes: trap captures of wild mice; type: in vivo
house mice, Mus musculus = experiment: Laboratory T-tube bioassay: behavioral responses of mice (first choice, time spent); type: in vivo; details: male mice
From the text: A laboratory experimental apparatus was constructed to test the behavioral responses of mice to the compositions described herein. The experimental design is depicted in FIG. 4 and includes three clear Plexiglas chambers: release chamber (1: 40 cm×20 cm×30 cm for placement of a mouse at the onset of a bioassay), and response chambers (3a and 3b: each 60 cm×30 cm×40 cm) interconnected by a Pyrex glass T-tube (2; stem: 65 cm long, side arms: 45 cm long, all 10 cm in diameter). Each response chamber housed a test stimulus in a Petri dish (4a, 4b; 3 cm diam.). For each replicate, a single mouse was deprived of food, but not water, for 4-6 h before being placed into chamber 1, which was illuminated by dim red light to facilitate observations of the mouse's position. The mouse was allowed to enter the stem of the T-tube (2) on its own accord in response to test stimuli, which were randomly assigned to response chamber 3a or 3b.
Both response chambers were fitted with a Petri dish (4a, 4b) containing a Whatman #1 filter paper disk (25 mm diam.) treated with a randomly assigned treatment stimulus or control stimulus. For each bioassay, a single mouse was tested and the following data were recorded: (1) the treatment or control chamber the mouse entered first with all four paws (“first-choice data”); and (2) the position of the mouse at each of 30 30-sec intervals after its first entry into the T-tube. Position data were then used to calculate the proportion of time a mouse spent in the treatment or control chamber (“time-spent data”).
Following each replicate, the chambers and T-tube were cleaned with a Percept® disinfectant detergent (Virox Technologies Inc. Mississaugua ON L5N 5M4, Canada) and wiped with 70% ethanol.
First-choice data and the time spent in a trap box quadrant were analyzed using a χ^2 test with Yates' correction for continuity (α=0.05) and the Student's t-test (α=0.05), respectively.
In Experiment 5, the laboratory experimental design of FIG. 4 was used to evaluate the responses of female mice to synthetic androstenone. For Experiment 5, the treatment stimulus consisted of filter paper treated with 4 μg of synthetic androstenone (see Experiments 1 and 2), and the control stimulus consisted of filter paper treated with the 50 μl of ether without androstenone.
In Experiment 6, the laboratory experimental design of FIG. 4 was used to evaluate the responses of male mice to blends of synthetic progesterone and estrogen. For Experiment 6, the treatment stimulus consisted of filter paper treated with a 4-μg blend of the synthetic hormones progesterone and estrogen formulated in 50 μl of ether at a ratio of 100:1 and a control stimulus which consisted of filter paper treated with 50 μl of ether.
In Experiments 9 to 11, the laboratory experimental design of FIG. 4 was used to evaluate the responses of male mice to synthetic progesterone and estrogen. For the Experiments, the treatment stimulus consisted of filter paper treated with a blend of the synthetic progesterone (50 ng) and estrogen (25 ng) (hereinafter “synthetic hormone blend”) (Experiment 9), progesterone alone (75 ng) (Experiment 10) or estrogen alone (75 ng) (Experiment 11) formulated in 50 μl ether. The control stimulus consisted of filter paper treated with 50 μl of ether for each of Experiments 9 to 11.
Experiment 12 used the laboratory experimental apparatus of FIG. 4 to test choices of female mice between filter paper treated with 75 ng of synthetic testosterone (the treatment stimulus) formulated in 50 μl of ether and control filter paper treated with 50 μl of ether. Experiment 13 was identical to Experiment 12 except that the treatment stimulus consisted of filter paper treated with 75 ng of synthetic androstenone.

[2] = Experiment 11, estrogen alone (75 ng)
[3] = Experiment 22, 750 ng of progesterone
[4] = Experiment 10, progesterone alone (75 ng)

SMILES | captures of wild mice vs control traps ([1]; Experiment 23, 750 ng of estradiol (estrogen)) | first entry into baited chamber vs control chamber (house mice, Mus musculus; [2]) | responsiveness of male mice compared with progesterone (house mice, Mus musculus; [2]) | time spent in treatment chamber vs control chamber (house mice, Mus musculus; [2]) | captures of adult male mice vs control traps [1, 3] | captures of juvenile male mice vs control traps [1, 3] | first entry into treated chamber vs control chamber (house mice, Mus musculus; [4]) | responses of male mice compared with the blend (house mice, Mus musculus; [4]) | time spent in treated chamber vs control chamber (house mice, Mus musculus; [4])
C[C@]12CC[C@@H]3c4ccc(O)cc4CC[C@H]3[C@@H]1CC[C@@H]2O [estrogen, (8R,9S,13S,14S,17S)-13-methyl-6,7,8,9,11,12,14,15,16,17-decahydrocyclopenta[a]phenanthrene-3,17-diol] | as ineffective as control traps | significantly more often | more responsive to estrogen than to progesterone | significantly more time | – | – | – | – | –
CC(=O)[C@H]1CC[C@H]2[C@@H]3CCC4=CC(=O)CC[C@]4(C)[C@H]3CC[C@]12C [progesterone] | – | – | – | – | significantly more | significantly more | did not significantly choose to first enter | less pronounced | significantly more time
